The results in this text go back to patent US20230286973A1, “PROTEIN SECRETION INHIBITORS” (KEZAR LIFE SCIENCES, priority 2020, published 2023).

For orientation: EC50 means the concentration needed to bring the measured effect to its halfway point.

Data set [1] in a line: Liver Microsome Stability Assay (human). Conditions: human liver microsomes, with NADPH, 1.0 uM compound.
Experimental: (§1) Stability of a compound was assessed in the presence of liver microsomes from various sources—mouse, rat, monkey and human liver microsomes. 1.0 uM compound, 0.4% DMSO in 0.1 M Potassium Phosphate with 1.0 mg/mL liver microsomes, were incubated at 37° C. with or without 1 mM NADPH. The samples were quenched at 0, and 30 minutes.
Data set [2] has as its system multiple myeloma cell line NCI-H929. The experiment in a line: H929 Cell Viability Assay. Particulars: Homo sapiens, NCI-H929, 48 h, NCI-H929 cells, Celltiter-Glo. It is filed as cell-based, human. In outline:
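Luminescent CellTiter-Glo read-out of viability after a 48 h exposure (37° C, 5% CO2) of NCI-H929 myeloma cells to compound dilutions in RPMI 1640 plus 10% FBS. Data for structures drawn without stereochemistry refer to stereoisomer mixtures.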
(In general: ATP-based viability assays read luminescence as a measure of living cells.)

A short description of data set [3]: Liver Microsome Stability Assay (rat). Conditions: rat liver microsomes, with NADPH, 1.0 uM compound. A general note: Liver microsomes are a subcellular fraction often used to study metabolism.
Experimental: as §1
The nature of data set [4]: Liver Microsome Stability Assay (monkey). Particulars: monkey liver microsomes, with NADPH, 1.0 uM compound.
Experimental: as §1
Data set [5] relates to IL-2-FL/Gaussia Luciferase. In words: Dox Induced IL2-FL-Gluc Assay. It is filed as cell-based. Conditions: for IC50: 24 hr Dox induction, 293FRT/TO cells, read-out: 24 hr Dox Inducible IL2FLGluc 293FRT/TO: Mean IC50; for 24 hr Dox Inducible IL2FLGluc 293FRT/TO: IL2/PD1: ratio of IL2FLGluc IC50 to PD1ssGluc IC50. In outline: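 Compounds in DMSO/medium with doxycycline were applied to a 293 T-REx stable line expressing an IL-2 (aa 1-153)–Gaussia luciferase fusion under tetracycline-regulated control, cells seeded one day earlier; incubation at 37 °C, 5% CO2. Structures drawn without stereochemistry were tested as stereoisomer mixtures.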

The subject of data set [6] is TNFα-FL/Gaussia Luciferase. The experiment in a line: Dox Induced TNFα-FL-Gluc Assay. It is filed as cell-based. Particulars: for IC50: 24 hr Dox induction, 293FRT/TO cells, read-out: 24 hr Dox Inducible TNFaFLGluc 293FRT/TO: Mean IC50; for 24 hr Dox Inducible TNFaFLGluc 293FRT/TO: TNF/PD1: ratio of TNFaFLGluc IC50 to PD1ssGluc IC50. An outline of the steps:
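Compound was added with doxycycline to cells plated a day earlier, incubating at 37° C under 5% CO2. The reporter line is 293 T-REx expressing a TNFα (1-233)–Gaussia luciferase fusion under tetracycline-regulated control.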

The subject of data set [7] is multiple myeloma cell line U266B1. The experiment in a line: U266 Cell Viability Assay. The class given is cell-based, human. Conditions: Homo sapiens, U-266, 48 h, U266B1 cells, Celltiter-Glo. An outline of the steps: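 CellTiter-Glo luminescence was read after a 48 h compound exposure (37 °C, 5% CO2) of human U266B1 myeloma cells grown in 10% FBS-supplemented RPMI 1640. Data for structures shown without defined stereochemistry refer to stereoisomer mixtures.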

Data set [8] relates to PD1-ss+10aa/Gaussia Luciferase. In words: Dox-Induced PD1-ss-Gluc Assay. The class given is cell-based. Conditions: 24 hr Dox induction, 293FRT/TO cells, read-out: 24 hr Dox Inducible PD1ssGluc 293FRT/TO: Mean IC50. In outline:
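Stable Flp-In 293 T-REx cells carried a doxycycline-inducible construct of Gaussia luciferase fused to the PD1 signal sequence plus 10 amino acids. Cells were plated the day before, then treated with compound dilutions in DMSO/media containing doxycycline at 37 °C, 5% CO2.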

A short description of data set [9]: Liver Microsome Stability Assay (mouse). Conditions: mouse liver microsomes, with NADPH, 1.0 uM compound.
Experimental: as §1
In data set [10] the test system is HER3-ss+4aa/Gaussia Luciferase. In words: Dox-Induced Her3-ss-Gluc Assay. Particulars: 24 hr Dox induction, 293FRT/TO cells, read-out: 24 hr Dox Inducible Her3(ss + 4)Gluc 293FRT/TO: Mean IC50. It is filed as cell-based. An outline of the steps: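 Compounds were diluted in DMSO/media containing doxycycline. They were added to Flp-In 293 T-REx cells plated the previous day, then incubated at 37 °C under 5% CO2. These cells stably express, under T-REx control, Gaussia luciferase fused to the HER3 signal sequence plus 4 amino acids.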

[11] abbreviates: '<=>' given where both are I.A.

Molecules are shown by their SMILES. Where two headings read alike, the source gives them in different places. Where only a bound is given, the exact number is not on record here.

For `Cc1cccc(Cn2cccc2C(=O)Nc2nc([C@H]3CCCN3c3ccccc3)cs2)c1` [Compound C120, (R)-1-(3-methylbenzyl)-N-(4-(1-phenylpyrrolidin-2-yl)thiazol-2-yl)-1H-pyrrole-2-carboxamide], the “Liver Microsome Stability (Multiple Species): Human - % Remaining after 30 min w/NADPH” value in data set [1] is on record as 62.8%. Also, the EC50 in [2] and in data set [7] was greater than 25 µM throughout. The “Liver Microsome Stability (Multiple Species): Rat - % Remaining after 30 min w/NADPH” value in data set [3] came out at 36.8%. Moreover, the “Liver Microsome Stability (Multiple Species): Monkey - % Remaining after 30 min w/NADPH” value in [4] came to 51.1%. For the same compound, the IC50 is 2.06 µM in data set [5] (mean), greater than 25 µM in data set [6] (mean), 4.42 µM in data set [8] (mean) and 1.83 µM in [10] (mean). The “24 hr Dox Inducible IL2FLGluc 293FRT/TO: IL2/PD1” value in [5] (setting [11]) amounted to 0.47. Besides, the “24 hr Dox Inducible TNFaFLGluc 293FRT/TO: TNF/PD1” value in data set [6] (setting [11]) was greater than 5.66. The “Liver Microsome Stability (Multiple Species): Mouse - % Remaining after 30 min w/NADPH” value in data set [9] turned out to be 38%.
With `Cc1c(/C=C/c2csc(NC(=O)c3cccn3Cc3ccnc(F)c3)n2)ncn1C(C)CO` (centres unmarked) [Compound B118, (E)-1-((2-fluoropyridin-4-yl)methyl)-N-(4-(2-(1-(1-hydroxypropan-2-yl)-5-methyl-1H-imidazol-4-yl)vinyl)thiazol-2-yl)-1H-pyrrole-2-carboxamide], the “Liver Microsome Stability (Multiple Species): Human - % Remaining after 30 min w/NADPH” value in [1] worked out at 0.37%. For the same compound, the EC50 in [2] and in data set [7] was greater than 25 µM in each case. The “Liver Microsome Stability (Multiple Species): Rat - % Remaining after 30 min w/NADPH” value in data set [3] was found to be 14.9%. Besides, the “Liver Microsome Stability (Multiple Species): Monkey - % Remaining after 30 min w/NADPH” value in data set [4] was found to be 0.21%. For the same compound, the IC50 was greater than 25 µM in [5] (mean), greater than 25 µM in data set [6] (mean), 0.247 µM in data set [8] (mean) and greater than 25 µM in data set [10] (mean). The “24 hr Dox Inducible IL2FLGluc 293FRT/TO: IL2/PD1” value in [5] (setting [11]) is given as greater than 100. Further, the “24 hr Dox Inducible TNFaFLGluc 293FRT/TO: TNF/PD1” value in [6] (setting [11]) is on record as greater than 101. Also, in [9], the “Liver Microsome Stability (Multiple Species): Mouse - % Remaining after 30 min w/NADPH” value was found to be 40.4%.
As to `N#Cc1cc(C(=O)Nc2nc([C@H]3CCCN3c3ccccc3)cs2)n(Cc2ccnc(F)c2)c1` [Compound A149, (R)-4-cyano-1-((2-fluoropyridin-4-yl)methyl)-N-(4-(1-phenylpyrrolidin-2-yl)thiazol-2-yl)-1H-pyrrole-2-carboxamide], the “Liver Microsome Stability (Multiple Species): Human - % Remaining after 30 min w/NADPH” value in data set [1] is given as 25.9%. For the same compound, the EC50 stood at 2.54 µM in [2] and 4.39 µM in [7]. Further, the “Liver Microsome Stability (Multiple Species): Rat - % Remaining after 30 min w/NADPH” value in data set [3] turned out to be 17.1%. In addition, the “Liver Microsome Stability (Multiple Species): Monkey - % Remaining after 30 min w/NADPH” value in data set [4] turned out to be 9.8%. In addition, the IC50 in data set [5] came out at 0.152 µM; in data set [6] it was 1.01 µM; in data set [8] it was 0.0681 µM; in data set [10], 0.126 µM. Also, the “24 hr Dox Inducible IL2FLGluc 293FRT/TO: IL2/PD1” value in [5] is on record as 2.2. In addition, the “24 hr Dox Inducible TNFaFLGluc 293FRT/TO: TNF/PD1” value in data set [6] is 14.9. In [9], the “Liver Microsome Stability (Multiple Species): Mouse - % Remaining after 30 min w/NADPH” value was 46%.
With `CC(C)n1ccnc1/C=C/c1csc(NC(=O)c2cccn2Cc2ccnc(F)c2)n1` [Compound B95, (E)-1-((2-fluoropyridin-4-yl)methyl)-N-(4-(2-(1-isopropyl-1H-imidazol-2-yl)vinyl)thiazol-2-yl)-1H-pyrrole-2-carboxamide], the “Liver Microsome Stability (Multiple Species): Human - % Remaining after 30 min w/NADPH” value in [1] was 0.04%. For the same compound, the half-maximal effective concentration (EC50) in data set [2] and in data set [7] was greater than 25 µM in each case. Besides, the “Liver Microsome Stability (Multiple Species): Rat - % Remaining after 30 min w/NADPH” value in data set [3] was 0.54%. Besides, the “Liver Microsome Stability (Multiple Species): Monkey - % Remaining after 30 min w/NADPH” value in data set [4] worked out at 0.03%. Moreover, the IC50 was greater than 25 µM in [5], greater than 25 µM in [6], 0.782 µM in data set [8] and greater than 25 µM in data set [10]. Besides, the “24 hr Dox Inducible IL2FLGluc 293FRT/TO: IL2/PD1” value in data set [5] was greater than 32. Also, the “24 hr Dox Inducible TNFaFLGluc 293FRT/TO: TNF/PD1” value in data set [6] was greater than 32.0. Further, the “Liver Microsome Stability (Multiple Species): Mouse - % Remaining after 30 min w/NADPH” value in [9] came out at 0.08%.
As for `CC(c1ccncc1)n1cccc1C(=O)Nc1nc([C@H]2CCCN2c2ccccc2)cs1` (stereo partly drawn) [Compound E13, N-(4-((R)-1-phenylpyrrolidin-2-yl)thiazol-2-yl)-1-(1-(pyridin-4-yl)ethyl)-1H-pyrrole-2-carboxamide], the “Liver Microsome Stability (Multiple Species): Human - % Remaining after 30 min w/NADPH” value in [1] is 5.08%. The EC50 in data set [2] is 5.91 µM; in data set [7], greater than 25 µM. Moreover, in data set [3], the “Liver Microsome Stability (Multiple Species): Rat - % Remaining after 30 min w/NADPH” value was determined as 10.1%. In [4], the “Liver Microsome Stability (Multiple Species): Monkey - % Remaining after 30 min w/NADPH” value is on record as 0.67%. The IC50 was 0.184 µM in [5] (mean), 0.832 µM in [6] (mean), 0.0533 µM in data set [8] (mean) and 0.114 µM in [10] (mean). The “24 hr Dox Inducible IL2FLGluc 293FRT/TO: IL2/PD1” value in data set [5] (setting [11]) is listed as 3.4. In addition, the “24 hr Dox Inducible TNFaFLGluc 293FRT/TO: TNF/PD1” value in data set [6] (setting [11]) is 15.6. In data set [9], the “Liver Microsome Stability (Multiple Species): Mouse - % Remaining after 30 min w/NADPH” value was found to be 1.95%.
As for `O=C(Nc1nc([C@H]2CCCN2c2ccccc2)cs1)c1cccn1CCCc1nnn[nH]1` [Compound C14, (R)-1-(3-(1H-tetrazol-5-yl)propyl)-N-(4-(1-phenylpyrrolidin-2-yl)thiazol-2-yl)-1H-pyrrole-2-carboxamide], the “Liver Microsome Stability (Multiple Species): Human - % Remaining after 30 min w/NADPH” value in [1] came out at 74.3%. Moreover, the EC50 in data set [2] and in data set [7] was greater than 25 µM each time. In addition, the “Liver Microsome Stability (Multiple Species): Rat - % Remaining after 30 min w/NADPH” value in [3] turned out to be 78.7%. In addition, the “Liver Microsome Stability (Multiple Species): Monkey - % Remaining after 30 min w/NADPH” value in [4] amounted to 90.3%. Besides, the IC50 in data set [5] (mean), in data set [6] (mean), in data set [8] (mean) and in data set [10] (mean) was greater than 25 µM in each case. In addition, in data set [5] (setting [11]), the “24 hr Dox Inducible IL2FLGluc 293FRT/TO: IL2/PD1” value stood at 1. In [9], the “Liver Microsome Stability (Multiple Species): Mouse - % Remaining after 30 min w/NADPH” value is 57.8%.
Turning to `O=C(Nc1nc([C@H]2CCCN2c2ccc(O[C@H]3CCCNC3)cc2)cs1)c1cccn1Cc1ccnc(F)c1` [Compound A88, 1-((2-fluoropyridin-4-yl)methyl)-N-(4-((R)-1-(4-(((S)-piperidin-3-yl)oxy)phenyl)pyrrolidin-2-yl)thiazol-2-yl)-1H-pyrrole-2-carboxamide], in data set [1], the “Liver Microsome Stability (Multiple Species): Human - % Remaining after 30 min w/NADPH” value came out at 57.6%. In addition, the half-maximal effective concentration (EC50) in [2] amounted to 7.33 µM; in data set [7], 11.5 µM. Besides, the “Liver Microsome Stability (Multiple Species): Rat - % Remaining after 30 min w/NADPH” value in data set [3] was 76%. The “Liver Microsome Stability (Multiple Species): Monkey - % Remaining after 30 min w/NADPH” value in [4] was determined as 3.2%. The IC50 in data set [5] turned out to be 3.33 µM; in data set [6], 11 µM; in [8] it was 0.952 µM; in [10] it was 1.21 µM. Also, the “24 hr Dox Inducible IL2FLGluc 293FRT/TO: IL2/PD1” value in data set [5] was determined as 3.5. In data set [6], the “24 hr Dox Inducible TNFaFLGluc 293FRT/TO: TNF/PD1” value was determined as 11.5. Further, the “Liver Microsome Stability (Multiple Species): Mouse - % Remaining after 30 min w/NADPH” value in [9] came to 71.7%.
